The values that follow come from paper PMC10134988, “An Arylbenzofuran, Stilbene Dimers, and Prenylated Diels–Alder Adducts as Potent Diabetic Inhibitors from Morus bombycis Leaves” (Antioxidants, 2023).

The target in assay [1] is α-glucosidase. The assay can be described thus: α-Glucosidase enzyme kinetics (Lineweaver–Burk and Dixon plots). The format is biochemical, Saccharomyces cerevisiae. The note with it: substrate pNPG; for Ki: Dixon plots, read-out: α-Glucosidase Inhibition Constant (Ki); for α-Glucosidase Inhibition Mode: Lineweaver–Burk plots. On the procedure: (§1) The two kinetic methods, Lineweaver–Burk plots and Dixon plots, were used to determine the inhibition mechanism. The α-glucosidase inhibition type was measured at various concentrations of substrate (pNPG, 0.625, 1.25, and 2.5 mM) and several concentrations of test compounds (0.8, 0.4, and 0.16 μM for compound 4; 2, 0.8, and 0.16 μM for 6; 3.17, 1.59, and 0.63 μM for 7; 1.54, 1.04, and 0.62 μM for 8) using Lineweaver–Burk double reciprocal plots. The PTP1B enzyme inhibition type was also measured at various concentrations of substrate (pNPP, 0.5, 1.0, 2.0, and 4.0 mM) and several concentrations of test compounds (4.0, 2.0, and 0.8 μM for compound 4; 2.0, 0.8, and 0.16 μM for 6; 15.87, 7.93, 3.17, and 0.63 μM for 7; 6.17, 3.08, 1.54 and 0.78 μM for 8) using Lineweaver–Burk double reciprocal plots. Dixon plots were used to determine the inhibition constant (Ki) of each compound by testing the effects of substrate and compounds against the α-glucosidase and PTP1B under the same conditions as described above.
(§2) Enzyme kinetic analysis was performed with different concentrations of substrate (pNPG and pNPP) and various concentrations of compounds to determine the type of inhibition on the compounds. Lineweaver–Burk and Dixon plots were used to determine the type of inhibition in enzyme kinetics. Each line of inhibitors intersected at the xy-side, indicating mixed-type inhibitors. On the other hand, the lines penetrated the same point on the x-intercept, representing non-competitive inhibitors in Lineweaver–Burk plots, and the Dixon plot was also used to calculate the Ki value for the enzyme inhibitor complex with the value shown on the x-axis indicating the -Ki value.

The test system of a further assay is BSA-AGEs formation. In words: Inhibition of BSA-AGEs formation. The assay is classed as biochemical. The note with it: mean ± SD, triplicate. As to the method:
(§3) The inhibitory activity of HRAR was examined according to previous literature with modifications. First, 150 µL of 100 mM sodium phosphate buffer (pH 6.2), 20 µL of 0.3 mM NADPH as the co-enzyme, 5 µL of the test samples (50, 10, and 2 mg/mL or 100% DMSO), and 20 µL of 10 mM DL-glyceraldehyde as the substrate were added to each of the 96 wells (final volume 200 µL). Quercetin was used as a positive control. The inhibitory activity of AGEs formation was examined according to the modified method. Aminoguanidine hydrochloride was used as a positive control for the AGEs formation inhibition assay.

Assay [2] has as its target α-glucosidase. The assay can be described thus: α-Glucosidase inhibitory activity. The assay is classed as biochemical, Saccharomyces cerevisiae. The note with it: isolated compounds; mean ± SD, triplicate. From the text:
(§4) Protein tyrosine phosphatase 1B (PTP1B) was purchased from ENZO (Farmingdale, NY, USA). Human recombinant AR (0.4 units) was purchased from Wako Chemicals (Osaka, Japan). Citric acid trisodium salt dehydrate, citric acid monohydrate, sodium carbonate anhydrous, sodium chloride, sodium phosphate dibasic anhydrous, and sodium phosphate monobasic dehydrate were purchased from SAMCHUN (Seoul, Korea). Peroxynitrite (ONOO^−), 3-[(3-cholamidopropyl)dimethylammonio]-1-propanesulfonate (CHAPS), and sodium azide were purchased from Bio-Rad Laboratories Calbiochem (San Diego, CA, USA), GENERAY BIOTECH (Shanghai, China), and JUNSEI (Chuoku, Tokyo, Japan), respectively.
(§5) The enzyme inhibition study was executed spectrophotometrically following the previous literature.

The target of assay [3] is T1, human recombinant aldose reductase (HRAR) (Homo sapiens, UniProt P15121).
T1 construct: purchased Wako Chemicals (Osaka, Japan)
In words: HRAR inhibitory activity. The format is biochemical.
From the text: as §4
The inhibitory activity of HRAR was examined according to previous literature with modifications. First, 150 µL of 100 mM sodium phosphate buffer (pH 6.2), 20 µL of 0.3 mM NADPH as the co-enzyme, 5 µL of the test samples (50, 10, and 2 mg/mL or 100% DMSO), and 20 µL of 10 mM DL-glyceraldehyde as the substrate were added to each of the 96 wells (final volume 200 µL). […] The inhibitory activity of AGEs formation was examined according to the modified method. Aminoguanidine hydrochloride was used as a positive control for the AGEs formation inhibition assay.

The target in assay [4] is T2, PTP1B (Homo sapiens, UniProt P18031).
T2 construct: purchased ENZO (Farmingdale, NY, USA)
T2 sequence (P18031 1-435): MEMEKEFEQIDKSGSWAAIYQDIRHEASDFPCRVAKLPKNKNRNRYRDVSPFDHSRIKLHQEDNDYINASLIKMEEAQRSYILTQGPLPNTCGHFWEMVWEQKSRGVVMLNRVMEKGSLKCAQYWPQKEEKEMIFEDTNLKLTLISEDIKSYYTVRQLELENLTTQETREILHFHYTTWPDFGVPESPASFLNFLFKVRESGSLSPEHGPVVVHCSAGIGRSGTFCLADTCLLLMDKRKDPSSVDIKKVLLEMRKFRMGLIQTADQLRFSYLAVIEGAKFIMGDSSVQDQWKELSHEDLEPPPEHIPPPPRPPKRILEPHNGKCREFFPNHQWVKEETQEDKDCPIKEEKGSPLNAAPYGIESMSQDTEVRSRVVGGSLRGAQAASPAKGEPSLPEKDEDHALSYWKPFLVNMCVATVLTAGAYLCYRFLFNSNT
The assay can be described thus: PTP1B enzyme kinetics (Lineweaver–Burk and Dixon plots). The assay is classed as biochemical. As to conditions: substrate pNPP; for Ki: Dixon plots, read-out: PTP1B Inhibition Constant (Ki); for PTP1B Inhibition Mode: Lineweaver–Burk plots. On the procedure: as §1, §2

Assay [5] addresses T2, PTP1B. In words: PTP1B inhibitory activity. The assay is classed as biochemical.
From the text: as §4, §5

The nature of assay [6]: ONOO− scavenging activity (DHR123). The note with it: mean ± SD, triplicate; read-out: Peroxynitirite IC50. On the procedure:
ONOO^− scavenging activity was measured using the method in previous literature involving measuring highly fluorescent rhodamine 123 that is converted from non-fluorescent DHR123 in the presence of ONOO^− [49].

For another assay, the system named is HAS-AGEs formation. The assay can be described thus: Inhibition of HSA-AGEs formation. The format is biochemical. As to conditions: mean ± SD, triplicate. On the procedure:
as §3

Assay [7] is described as follows: DPPH radical scavenging activity. The note with it: Table 1; mean ± SD, triplicate. As to the method: (§6) The ABTS and DPPH radical scavenging activity of the extract and each fraction obtained from M. bombycis leaves were measured according to previous literature with modifications.
Assay [8] in a line: ABTS radical scavenging activity. As to conditions: Table 1; mean ± SD, triplicate. As to the method:
as §6

The mark [9] stands for this setting: one result of a single experiment, read-out: HRAR IC50.
[10] abbreviates: isolated compounds, mean ± SD, triplicate, read-out: PTP1B IC50.

Where two headings read alike, the source gives them in different places.

The term Ki denotes a measure of affinity in units of concentration, obtained from inhibition or displacement. Broadly, the IC50 is the concentration that gives 50% inhibition. Regarding `Oc1cc(O)cc(-c2cc3c4c(c(O)cc3o2)OC(c2ccc(O)cc2O)C4c2cc(O)cc(O)c2)c1` (stereo not shown) [Macrourin B (4), macrourin B], the Ki on α-glucosidase [1] came out at 0.19 µM; at PTP1B [4] it was 1.54 µM. Moreover, the “α-Glucosidase Inhibition Mode” value with α-glucosidase [1] is “Mixed”. Moreover, the IC50 in the assay on BSA-AGEs formation was 9.44 ± 0.18 µM; against α-glucosidase [2], 0.44 ± 0.03 µM; in [3] (setting [9]), under 4 µM; at PTP1B [5] (setting [10]), 2.5 ± 0.17 µM; in assay [6] it was 2.61 ± 0.13 µM; with HAS-AGEs formation, 7.98 ± 0.62 µM. In addition, the “PTP1B Inhibition Mode” value is “Mixed” at PTP1B [4] and “mixed-type inhibition” at PTP1B [4] (listed as 4).

Take `CC(C)=CCc1c(O)ccc(C(=O)[C@H]2[C@@H](c3c(O)cc(-c4cc5ccc(O)cc5o4)cc3O)C=C(C)C[C@@H]2c2ccc(O)cc2O)c1O` [Chalcomoracin (8), chalcomoracin]: the Ki at α-glucosidase [1] stood at 1.71 µM; on PTP1B [4], 4.41 µM. For the same compound, in the assay on α-glucosidase [1], the “α-Glucosidase Inhibition Mode” value was “Mixed”. Besides, the IC50 is 137.6 ± 0.33 µM with BSA-AGEs formation; 0.98 ± 0.03 µM against α-glucosidase [2]; 265 µM in assay [3] (setting [9]); 2.06 ± 0.39 µM at PTP1B [5] (setting [10]); 3.03 ± 0.53 µM in assay [6]; 113 ± 3.62 µM in the assay on HAS-AGEs formation. For the same compound, the entries for the “PTP1B Inhibition Mode” value on PTP1B [4] and at PTP1B [4] (listed as 8) were “Non-competitive” and “non-competitive-type inhibition”, respectively.

As to `CC(C)(S)[C@H](N)C(=O)O` [L-Penicillamine, reference compound], in assay [6], the IC50 was found to be 0.62 ± 0.17 µM.

Regarding `Cl.N=C(N)NN` [Aminoguanidine, aminoguanidine hydrochloride, reference compound], the IC50 in the assay with BSA-AGEs formation came out at 581 ± 28.7 µM; in the assay with HAS-AGEs formation it was 504 ± 14.9 µM. Moreover, the “BSA-AGEs IC50” value with BSA-AGEs formation (subfractions of EtOAc fraction, Table S1) was found to be 36.73 ± 1.64 µg/mL.

For the compound `O=C1O[C@H]([C@@H](O)CO)C(O)=C1O` [L-ascorbic acid], in assay [7], the “DPPH IC50” value stood at 2.82 ± 0.57 µg/mL. Besides, the “ABTS IC50” value in [8] stood at 3.38 ± 0.19 µg/mL.

Regarding `CC(C)=CCc1c(O)ccc(C23Oc4cc(O)ccc4C4CC(C)=CC(c5c(O)cc(-c6cc7ccc(O)cc7o6)cc5O2)C43)c1O` (stereo not shown) [Mulberrofuran F (7), mulberrofuran F], the Ki on α-glucosidase [1] came to 1.84 µM; at PTP1B [4] it was 8.9 µM. For the same compound, in the assay on α-glucosidase [1], the “α-Glucosidase Inhibition Mode” value is “Mixed”. Besides, the IC50 stood at 1.22 ± 0.05 µM at α-glucosidase [2], 337 µM in assay [3] (setting [9]), 10.5 ± 0.25 µM on PTP1B [5] (setting [10]) and 8.63 ± 0.02 µM in assay [6]. Also, the entries for the “PTP1B Inhibition Mode” value at PTP1B [4] and on PTP1B [4] (listed as 7) were “Mixed” and “mixed-type inhibition”, respectively.

On to `Oc1cc(O)cc(/C=C/c2ccc(O)cc2O)c1` [Oxyresveratrol (3), oxyresveratrol], for which the IC50 was found to be 10.4 ± 0.39 µM with BSA-AGEs formation; 2.58 ± 0.23 µM against α-glucosidase [2]; 265 µM in assay [3]; 72.9 ± 1.87 µM against PTP1B [5]; 6.24 ± 0.06 µM in [6]; 5.38 ± 0.26 µM in the assay with HAS-AGEs formation.

`Cc1c(C)c2c(c(C)c1O)CCC(C)(C(=O)O)O2` (stereo not shown) [Trolox, 6-hydroxy-2,5,7,8-tetramethylchloman-2-carboxylic acid]: the “ABTS IC50” value in [8] turned out to be 2.72 ± 0.13 µg/mL.

On to `Oc1cc(O)cc(-c2cc3cc4c(cc3o2)OC(c2cc(O)cc(O)c2)C(c2ccc(O)cc2O)O4)c1` (stereo not shown) [Austrafuran C (6), austrafuran C], for which the results for the Ki on α-glucosidase [1] and on PTP1B [4] were 0.75 µM and 1.45 µM, respectively. The “α-Glucosidase Inhibition Mode” value with α-glucosidase [1] is “Mixed”. Moreover, the IC50 with BSA-AGEs formation was determined as 13.7 ± 0.55 µM; against α-glucosidase [2] it was 1.01 ± 0.17 µM; in assay [3] (setting [9]), 26.8 µM; on PTP1B [5] (setting [10]), 1.69 ± 0.02 µM; in assay [6] it was 2.76 ± 0.25 µM; with HAS-AGEs formation, 6.15 ± 0.25 µM. The “PTP1B Inhibition Mode” value is reported as “Mixed” at PTP1B [4] and “mixed-type inhibition” on PTP1B [4] (listed as 6).

`Oc1cc(O)cc(-c2cc3ccc(O)cc3o2)c1` [Moracin M (5), moracin M]: the IC50 in the assay with BSA-AGEs formation turned out to be 2.4 ± 0.18 µM; against α-glucosidase [2], 6.11 ± 0.53 µM; in [3] (setting [9]), 238 µM; on PTP1B [5] (setting [10]) it was 27.1 ± 4.2 µM; in assay [6] it was 0.92 ± 0.13 µM; in the assay on HAS-AGEs formation, 2.07 ± 0.03 µM.
